# From ChEMBL document CHEMBL3792388, “Ecdysones from Zoanthus spp. with inhibitory activity against dengue virus 2” (Bioorg Med Chem Lett, 2016)
# Experiments:
# dengue virus type 2 = experiment: Antiviral activity against Dengue virus 2 DN454009A infected in human HuH7 cells assessed as inhibition of viral RNA level measured 72 hrs post infection by qRT-PCR method; format: functional, organism-based; settings: Huh-7, 72 h
# [1] = Cytotoxicity against human HuH7 cells assessed as reduction in cell viability after 72 hrs by MTS assay; format: cell-based, Huh-7
# [2] = Selectivity index, ratio of CC50 for human HuH7 cells to EC50 for Dengue virus 2 DN454009A infected in human HuH7 cells; format: toxicity, cell-based, Huh-7; settings: read-out: Ratio CC50/EC50
# dengue virus type 3 = experiment: Antiviral activity against Dengue virus 3 DN8700829A infected in human HuH7 cells assessed as inhibition of viral RNA level measured 72 hrs post infection by qRT-PCR method; format: functional, organism-based; settings: Huh-7, 72 h
# dengue virus type 4 = experiment: Antiviral activity against Dengue virus 4 S9201818 infected in human HuH7 cells assessed as inhibition of viral RNA level measured 72 hrs post infection by qRT-PCR method; format: functional, organism-based; settings: S9201818, Huh-7, 72 h
# dengue virus type 1 = experiment: Antiviral activity against Dengue virus 1 DN8700828 infected in human HuH7 cells assessed as inhibition of viral RNA level measured 72 hrs post infection by qRT-PCR method; format: functional, organism-based; settings: DN8700828, Huh-7, 72 h
EC50 (dengue virus type 2) [µM],SMILES,CC50 at 72 h [1] [µM],selectivity ratio [2],EC50 (dengue virus type 3) [µM],EC50 (dengue virus type 4) [µM],EC50 (dengue virus type 1) [µM]
87.3,CC(=O)O[C@@H]1C[C@H]2C(=O)C=C3[C@H](CC[C@]4(C)[C@@H]([C@@](C)(O)[C@H](O)CCC(C)(C)O)CC[C@@]34O)[C@@]2(C)C[C@@H]1O,> 700,> 8,–,–,–
19.6,CC(=O)OC(C)(C)CC[C@@H](O)[C@](C)(O)[C@H]1CC[C@@]2(O)C3=CC(=O)[C@@H]4C[C@@H](O)[C@@H](O)C[C@]4(C)[C@H]3[C@H](O)C[C@]12C,> 700,> 36.7,–,–,–
39.8,CC(=O)OC(C)(C)CC[C@@H](O)[C@](C)(O)[C@H]1CC[C@@]2(O)C3=CC(=O)[C@@H]4C[C@@H](O)[C@@H](O)C[C@]4(C)[C@H]3CC[C@]12C,> 700,> 17.6,–,–,–
53.6,CC(C)(O)CC[C@@H](O)[C@](C)(O)[C@H]1CC[C@@]2(O)C3=CC(=O)[C@@H]4C[C@@H](O)[C@@H](O)C[C@]4(C)[C@H]3CC[C@]12C [20-HYDROXYECDYSONE],> 700,> 13.1,–,–,–
> 100,C[C@H](O)[C@H]1CC[C@@]2(O)C3=CC(=O)[C@@H]4C[C@@H](O)[C@@H](O)C[C@]4(C)[C@H]3CC[C@]12C,> 700,–,–,–,–
11.2,C[C@@]1(O)[C@H](O)[C@@H](CO)O[C@H]1n1ccc(N)nc1=O,94.8,> 8.5,–,–,–
> 100,C=C(C[C@@H](O)[C@](C)(O)[C@H]1CC[C@@]2(O)C3=CC(=O)[C@@H]4C[C@@H](O)[C@@H](O)C[C@]4(C)[C@H]3CC[C@]12C)C(C)(C)O,> 700,–,–,–,–

SMILES,EC50 (dengue virus type 2) [µM],CC50 at 72 h [1] [µM],selectivity ratio [2],EC50 (dengue virus type 3) [µM],EC50 (dengue virus type 4) [µM],EC50 (dengue virus type 1) [µM]
CC(CO)CC[C@@H](O)[C@](C)(O)[C@H]1CC[C@@]2(O)C3=CC(=O)[C@@H]4C[C@@H](O)[C@@H](O)C[C@]4(C)[C@H]3CC[C@]12C (some centres not stated) [INOKOSTERONE],> 100,> 700,–,–,–,–
CC(C)(O)CC[C@@H](O)[C@](C)(O)[C@H]1CC[C@@]2(O)C3=CC(=O)[C@@H]4C[C@@H](O)CC[C@]4(C)[C@H]3CC[C@]12C,> 100,> 700,–,–,–,–
CC(C)CC[C@@H](O)[C@](C)(O)[C@H]1CC[C@@]2(O)C3=CC(=O)[C@@H]4C[C@@H](O)[C@@H](O)C[C@]4(C)[C@H]3[C@H](O)C[C@]12C,10.1,> 700,> 69.7,9.48,12.2,15.7
CC(C)CC[C@@H](O)[C@](C)(O)[C@H]1CC[C@@]2(O)C3=CC(=O)[C@@H]4C[C@@H](O)[C@@H](O)C[C@]4(C)[C@H]3CC[C@]12C [PONASTERONE A],> 100,> 700,–,–,–,–
C[C@H]([C@H](O)CCC(C)(C)O)[C@H]1CC[C@@]2(O)C3=CC(=O)[C@@H]4C[C@@H](O)[C@@H](O)C[C@]4(C)[C@H]3CC[C@]12C [ECDYSONE],54.3,> 700,> 12.9,–,–,–
CC(C)(O)CC[C@@H](O)[C@](C)(O)[C@H]1CC[C@@]2(O)C3=CC(=O)[C@@H]4C[C@@H](O)[C@@H](O)C[C@]4(C)[C@H]3[C@H](O)C[C@]12C [TURKESTERONE],38.1,> 700,> 18.3,–,–,–
